BigSolDB 2.1

O=C1NC(=O)c2cc([N+](=O)[O-])ccc21
Settings | solubility (mole fraction)
in 1,4-dioxane, 283.15 K | 0.0228
in 1,4-dioxane, 285.65 K | 0.0238
in 1,4-dioxane, 288.15 K | 0.0249
in 1,4-dioxane, 293.15 K | 0.0271
in 1,4-dioxane, 295.65 K | 0.0282
in 1,4-dioxane, 298.15 K | 0.0295
in 1,4-dioxane, 303.15 K | 0.0318
in 1,4-dioxane, 305.65 K | 0.0331
in 1,4-dioxane, 308.15 K | 0.0345
in 1,4-dioxane, 313.15 K | 0.0371
in 1,4-dioxane, 315.65 K | 0.0384
in 1,4-dioxane, 318.15 K | 0.0399
in 1,4-dioxane, 323.15 K | 0.0425
in 2-butanone, 273.15 K | 0.0161
in 2-butanone, 275.65 K | 0.0169
in 2-butanone, 278.15 K | 0.0177
in 2-butanone, 283.15 K | 0.0195
in 2-butanone, 285.65 K | 0.0205
in 2-butanone, 288.15 K | 0.0215
in 2-butanone, 293.15 K | 0.0234
in 2-butanone, 295.65 K | 0.0244
in 2-butanone, 298.15 K | 0.0256
in 2-butanone, 303.15 K | 0.0279
in 2-butanone, 305.65 K | 0.029
in 2-butanone, 308.15 K | 0.0302
in 2-butanone, 313.15 K | 0.0327
in 2-butanone, 315.65 K | 0.0339
in 2-butanone, 318.15 K | 0.0353
in 2-butanone, 323.15 K | 0.038
in DMF, 273.15 K | 0.0357
in DMF, 275.65 K | 0.039
in DMF, 278.15 K | 0.0425
in DMF, 283.15 K | 0.0497
in DMF, 285.65 K | 0.0535
in DMF, 288.15 K | 0.0586
in DMF, 293.15 K | 0.0682
in DMF, 295.65 K | 0.0732
in DMF, 298.15 K | 0.0789
in DMF, 303.15 K | 0.0912
in DMF, 305.65 K | 0.0976
in DMF, 308.15 K | 0.104
in DMF, 313.15 K | 0.12
in DMF, 315.65 K | 0.128
in DMF, 318.15 K | 0.137
in DMF, 323.15 K | 0.155
in acetone, 273.15 K | 0.0175
in acetone, 275.65 K | 0.0185
in acetone, 278.15 K | 0.0193
in acetone, 283.15 K | 0.0211
in acetone, 285.65 K | 0.022
in acetone, 288.15 K | 0.023
in acetone, 293.15 K | 0.025
in acetone, 295.65 K | 0.0261
in acetone, 298.15 K | 0.0271
in acetone, 303.15 K | 0.0293
in acetone, 305.65 K | 0.0305
in acetone, 308.15 K | 0.0317
in acetone, 313.15 K | 0.034
in acetone, 315.65 K | 0.0353
in acetone, 318.15 K | 0.0366
in acetone, 323.15 K | 0.0392
in acetonitrile, 273.15 K | 0.00359
in acetonitrile, 275.65 K | 0.00382
in acetonitrile, 278.15 K | 0.00403
in acetonitrile, 283.15 K | 0.00449
in acetonitrile, 285.65 K | 0.00474
in acetonitrile, 288.15 K | 0.00503
in acetonitrile, 293.15 K | 0.00555
in acetonitrile, 295.65 K | 0.00584
in acetonitrile, 298.15 K | 0.00618
in acetonitrile, 303.15 K | 0.00679
in acetonitrile, 305.65 K | 0.00709
in acetonitrile, 308.15 K | 0.00749
in acetonitrile, 313.15 K | 0.00822
in acetonitrile, 315.65 K | 0.00858
in acetonitrile, 318.15 K | 0.00894
in acetonitrile, 323.15 K | 0.00976
in benzyl alcohol, 273.15 K | 0.0134
in benzyl alcohol, 275.65 K | 0.0143
in benzyl alcohol, 278.15 K | 0.0154
in benzyl alcohol, 283.15 K | 0.0175
in benzyl alcohol, 285.65 K | 0.0188
in benzyl alcohol, 288.15 K | 0.0202
in benzyl alcohol, 293.15 K | 0.023
in benzyl alcohol, 295.65 K | 0.0245
in benzyl alcohol, 298.15 K | 0.0261
in benzyl alcohol, 303.15 K | 0.0294
in benzyl alcohol, 305.65 K | 0.0312
in benzyl alcohol, 308.15 K | 0.0331
in benzyl alcohol, 313.15 K | 0.0372
in benzyl alcohol, 315.65 K | 0.0393
in benzyl alcohol, 318.15 K | 0.0417
in benzyl alcohol, 323.15 K | 0.0466
in chloroform, 273.15 K | 0.000535
in chloroform, 275.65 K | 0.000577
in chloroform, 278.15 K | 0.000625
in chloroform, 283.15 K | 0.000722
in chloroform, 285.65 K | 0.000775
in chloroform, 288.15 K | 0.000837
in chloroform, 293.15 K | 0.000959
in chloroform, 295.65 K | 0.00102
in chloroform, 298.15 K | 0.00109
in chloroform, 303.15 K | 0.00124
in chloroform, 305.65 K | 0.00131
in chloroform, 308.15 K | 0.0014
in chloroform, 313.15 K | 0.0016
in chloroform, 315.65 K | 0.00169
in chloroform, 318.15 K | 0.00178
in chloroform, 323.15 K | 0.00201
in cyclohexanone, 273.15 K | 0.0295
in cyclohexanone, 275.65 K | 0.0307
in cyclohexanone, 278.15 K | 0.0321
in cyclohexanone, 283.15 K | 0.0352
in cyclohexanone, 285.65 K | 0.0367
in cyclohexanone, 288.15 K | 0.0387
in cyclohexanone, 293.15 K | 0.0422
in cyclohexanone, 295.65 K | 0.044
in cyclohexanone, 298.15 K | 0.0461
in cyclohexanone, 303.15 K | 0.0506
in cyclohexanone, 305.65 K | 0.0527
in cyclohexanone, 308.15 K | 0.0552
in cyclohexanone, 313.15 K | 0.0604
in cyclohexanone, 315.65 K | 0.0629
in cyclohexanone, 318.15 K | 0.0655
in cyclohexanone, 323.15 K | 0.0708
in ethanol, 273.15 K | 0.000713
in ethanol, 275.65 K | 0.000799
in ethanol, 278.15 K | 0.000897
in ethanol, 283.15 K | 0.00112
in ethanol, 285.65 K | 0.00123
in ethanol, 288.15 K | 0.00137
in ethanol, 293.15 K | 0.00166
in ethanol, 295.65 K | 0.00183
in ethanol, 298.15 K | 0.00201
in ethanol, 303.15 K | 0.00244
in ethanol, 305.65 K | 0.00265
in ethanol, 308.15 K | 0.00288
in ethanol, 313.15 K | 0.00347
in ethanol, 315.65 K | 0.00378
in ethanol, 318.15 K | 0.00405
in ethanol, 323.15 K | 0.00479
in ethyl acetate, 273.15 K | 0.00919
in ethyl acetate, 275.65 K | 0.00981
in ethyl acetate, 278.15 K | 0.0104
in ethyl acetate, 283.15 K | 0.0117
in ethyl acetate, 285.65 K | 0.0123
in ethyl acetate, 288.15 K | 0.0131
in ethyl acetate, 293.15 K | 0.0146
in ethyl acetate, 295.65 K | 0.0155
in ethyl acetate, 298.15 K | 0.0163
in ethyl acetate, 303.15 K | 0.0181
in ethyl acetate, 305.65 K | 0.019
in ethyl acetate, 308.15 K | 0.02
in ethyl acetate, 313.15 K | 0.022
in ethyl acetate, 315.65 K | 0.0231
in ethyl acetate, 318.15 K | 0.0243
in ethyl acetate, 323.15 K | 0.0266
in isopropanol, 273.15 K | 0.000586
in isopropanol, 275.65 K | 0.000643
in isopropanol, 278.15 K | 0.000741
in isopropanol, 283.15 K | 0.000937
in isopropanol, 285.65 K | 0.00104
in isopropanol, 288.15 K | 0.00115
in isopropanol, 293.15 K | 0.00143
in isopropanol, 295.65 K | 0.00159
in isopropanol, 298.15 K | 0.00175
in isopropanol, 303.15 K | 0.00214
in isopropanol, 305.65 K | 0.00234
in isopropanol, 308.15 K | 0.00257
in isopropanol, 313.15 K | 0.00311
in isopropanol, 315.65 K | 0.0034
in isopropanol, 318.15 K | 0.0037
in isopropanol, 323.15 K | 0.00443
in methanol, 273.15 K | 0.0014
in methanol, 275.65 K | 0.00151
in methanol, 278.15 K | 0.00167
in methanol, 283.15 K | 0.00196
in methanol, 285.65 K | 0.00212
in methanol, 288.15 K | 0.00233
in methanol, 293.15 K | 0.00272
in methanol, 295.65 K | 0.00295
in methanol, 298.15 K | 0.00318
in methanol, 303.15 K | 0.00372
in methanol, 305.65 K | 0.00397
in methanol, 308.15 K | 0.00427
in methanol, 313.15 K | 0.00493
in methanol, 315.65 K | 0.00527
in methanol, 318.15 K | 0.00566
in methanol, 323.15 K | 0.00646
